Test results from patent US6875762B2, “Tetracyclic azepinoindole compounds” (Pfizer, priority 1999, dated 2005).
Where a name gives a salt, the structure may show the parent alone.

Biological target: T1, Human 5-HT2C receptor (Homo sapiens, UniProt P28335)
T1 construct: expressed in transfected cells; host or cells: HEK293 (HEK293-h5-HT2C-5 cell line), membranes
Test: Test A: scintillation proximity radioligand binding assay with [3H]serotonin
Conditions: Receptor binding 5HT2c Ki (nM), membranes of HEK293-h5-HT2C-5 cells; [3H]serotonin final 4 nM; IC50 converted by Cheng-Prusoff, Kd 7 nM
Protocol: The gene was inserted into expression vectors containing resistance genes as selectable markers. […] The receptor was used under license from D. J. Julius at Columbia University.
The HEK293-h5-HT2C-5 cell line was seeded from frozen stocks into DMEM high glucose salts medium supplemented with sodium pyruvate, Penicillin/Streptomycin solution, G418 (0.25 g/L), hygromycin B ([…]), and Fetal Bovine Serum (3%). […] At approximately 90% confluency, the cells were rinsed with ice-cold PBS and scraped from the NUNC plates using 3M squeegees. The cells were broken with a VirTishear homogenizer. The remaining particulate matter was removed by low-speed centrifugation. Finally, the membranes were concentrated by high-speed centrifugation and resuspended in binding buffer, 50 mM TRIS, 5 mM MgCl2, pH 7.4. The preparation was held in a water-ice slurry while a pilot binding assay was performed (1.5 hours), and then quick-frozen in aliquots appropriate for 1 tube for each 96-well assay plate.
Assays were performed in Wallac microtitre PET plates designed for the Wallac microBeta LSC. Binding reactions contained test compound (11 μl), [^3H]serotonin (124 Ci/mmol, 11 μl for final 4 nM) and bead-membrane mixture (178 μl). The test compound was replaced by water to determine total binding, or by mianserin (5 μM) to define non-specific binding.
The bead-membrane mixture was made by adding 100 mg Wheatgerm Agglutinin SPA beads (Amersham) and membrane preparation (2-5 mg protein) in a total of 8 ml binding buffer for each 96-well assay plate. The mixture was stirred gently for 30 minutes at room temperature, followed by centrifugation (1000 RPM, Beckman Accuspin FR) for 10 minutes. The supernatant, containing excess membrane, was aspirated, and the beads resuspended in 18.5 ml binding buffer for each assay plate. The washed bead-membrane mix was then poured into a reagent reservoir. The mixture was pipetted into the assay plate with a multi-channel pipetter, maintaining constant stirring during pipetting.
After the reactions were complete, the plates were sealed with plastic tape and placed on a gyrotory shaker (150 rpm) for 5 minutes. After shaking, room temperature incubation continued for 2 hours. Finally, the plates were loaded into counting cassettes and counted with the Wallac microBeta LSC.
Eleven half-log serial dilutions of test compounds were made in water using the PE/Cetus Pro/Pette pipetter. These dilutions were distributed to assay plates using the same instrument, followed by radioligand and the bead-membrane mixture prepared as described above. The specifically bound cpm obtained were fit to a one-site binding model using GraphPad Prism ver. 2.0.

T1 sequence (P28335 33-458): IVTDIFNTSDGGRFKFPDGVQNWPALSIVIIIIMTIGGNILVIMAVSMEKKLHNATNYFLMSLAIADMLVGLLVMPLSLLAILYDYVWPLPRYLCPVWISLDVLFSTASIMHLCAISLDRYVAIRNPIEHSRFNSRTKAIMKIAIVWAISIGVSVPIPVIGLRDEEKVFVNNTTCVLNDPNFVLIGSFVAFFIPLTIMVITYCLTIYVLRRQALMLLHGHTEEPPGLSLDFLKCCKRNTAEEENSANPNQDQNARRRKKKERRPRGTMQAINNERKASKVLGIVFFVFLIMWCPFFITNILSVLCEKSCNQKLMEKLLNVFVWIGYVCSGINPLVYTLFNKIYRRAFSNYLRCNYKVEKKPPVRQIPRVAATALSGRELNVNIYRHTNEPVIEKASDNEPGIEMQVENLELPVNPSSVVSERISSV

SMILES	Ki [nM]
COc1ccc2c3c1c1c(n3CCC2)CCNCC1 [Example 3, 1-methoxy-5,6,9,10,11,12-hexahydro-4H,8H-azepino[4′,5′:4,5]pyrrolo[3,2,1-ij]quinoline hydrochloride]	27
Fc1cc2c3c(c1)c1c(n3CC2)CCNCC1 [Example 15, 2-fluoro-4,5,8,9,10,11-hexahydro-7H-azepino[4,5-b]pyrrolo[3,2,1-hi]indole hydrochloride]	24
CC1CCn2c3c(c4cccc1c42)CCNCC3 (single isomer, unassigned; (-)) [Example 13, (−)-4-methyl-5,6,9,10,11,12-hexahydro-4H,8H-azepino[4′,5′:4,5]pyrrolo[3,2,1-ij]quinoline hydrochloride]	45
CC1CCn2c3c(c4cccc1c42)CCNCC3 (single isomer, unassigned; (+)) [Example 12, (+)-4-methyl-5,6,9,10,11,12-hexahydro-4H,8H-azepino[4′,5′:4,5]pyrrolo[3,2,1-ij]quinoline hydrochloride]	41
c1cc2c3c(c1)c1c(n3CC2)CCNCC1 [Example 14, 4,5,8,9,10,11-hexahydro-7H-azepino[4,5-b]pyrrolo[3,2,1-hi]indole hydrochloride]	28
COc1cc2c3c(c1)c1c(n3CC2)CCNCC1 [Example 16, 2-methoxy-4,5,8,9,10,11-hexahydro-7H-azepino[4,5-b]pyrrolo[3,2,1-hi]indole hydrochloride]	361
CC1CCn2c3c(c4cccc1c42)CCNCC3 (stereo not drawn) [Example 7, 4-methyl-5,6,9,10,11,12-hexahydro-4H,8H-azepino[4′,5′:4,5]pyrrolo[3,2,1-ij]quinoline hydrochloride]	77
Cc1cc2c3c(c1)c1c(n3CCO2)CCNCC1 [Example 24, 5-methyl-1,2,8,9,10,11-hexahydro-7H-azepino[4,5-b][1,4]oxazino[2,3,4-hi]indole hydrochloride]	29
CC1Cc2cccc3c4c(n1c23)CCNCC4 (stereo not drawn) [Example 17, 5-methyl-4,5,8,9,10,11-hexahydro-7H-azepino[4,5-b]pyrrolo[3,2,1-hi]indole hydrochloride]	65

Same assay, conditions: membranes of HEK293-h5-HT2C-5 cells; [3H]serotonin final 4 nM; IC50 converted by Cheng-Prusoff, Kd 7 nM; read-out: Receptor binding 5HT2c Ki

SMILES	Ki [nM]
c1cc2c3c(c1)c1c(n3C3CCCCC23)CCNCC1 (stereo not drawn) [Example 19, 2,3,4,5,8b,9,10,11,12,12a-decahydro-1H-azepino[4′,5′:4,5]pyrrolo[3,2,1-jk]carbazole hydrochloride]	144
Fc1ccc2c3c1c1c(n3CCO2)CCNCC1 [Example 25, 6-fluoro-1,2,8,9,10,11-hexahydro-7H-azepino[4,5-b][1,4]oxazino[2,3,4-hi]indole hydrochloride]	8
Fc1cc2c3c(c1)c1c(n3CCO2)CCNCC1 [Example 23, 5-fluoro-1,2,8,9,10,11-hexahydro-7H-azepino[4,5-b][1,4]oxazino[2,3,4-hi]indole hydrochloride]	13
CC1Cn2c3c(c4cccc(c42)O1)CCNCC3 (stereo not drawn) [Example 26, 2-methyl-1,2,8,9,10,11-hexahydro-7H-azepino[4,5-b][1,4]oxazino[2,3,4-hi]indole hydrochloride]	29
CC1c2cccc3c4c(n(c23)C1C)CCNCC4 (stereo not drawn) [Example 18, 4,5-dimethyl-4,5,8,9,10,11-hexahydro-7H-azepino[4,5-b]pyrrolo[3,2,1-hi]indole hydrochloride]	52
CC1CCc2cccc3c4c(n1c23)CCNCC4 (single isomer, unassigned; (+)) [Example 8, (+)-6-methyl-5,6,9,10,11,12-hexahydro-4H,8H-azepino[4′,5′:4,5]pyrrolo[3,2,1-ij]quinoline hydrochloride]	51
CC1CCc2cccc3c4c(n1c23)CCNCC4 (stereo not drawn) [Example 5, 6-methyl-5,6,9,10,11,12-hexahydro-4H,8H-azepino[4′,5′:4,5]pyrrolo[3,2,1-ij]quinoline hydrochloride]	33
Fc1cc2c3c(c1)c1c(n3CCC2)CCNCC1 [Example 4, 2-fluoro-5,6,9,10,11,12-hexahydro-4H,8H-azepino[4′,5′:4,5]pyrrolo[3,2,1-ij]quinoline hydrochloride]	83
c1cc2c3c(c1)c1c(n3CCO2)CCNCC1 [Example 21, 1,2,8,9,10,11-hexahydro-7H-azepino[4,5-b][1,4]oxazino[2,3,4-hi]indole hydrochloride]	16
c1cc2c3c(c1)c1c(n3CCS2)CCNCC1 [Example 27, 1,2,8,9,10,11-hexahydro-7H-azepino[4,5-b][1,4]thiazino[2,3,4-hi]indole hydrochloride]	5.1
CC1Cc2cccc3c4c(n(c23)C1)CCNCC4 (single isomer, unassigned; (+)) [Example 10, (+)-5-methyl-5,6,9,10,11,12-hexahydro-4H,8H-azepino[4′,5′:4,5]pyrrolo[3,2,1-ij]quinoline hydrochloride]	70
c1cc2c3c(c1)c1c(n3CCC2)CCNCC1 [Example 1, 5,6,9,10,11,12-hexahydro-4H,8H-azepino[4′,5′:4,5]pyrrolo[3,2,1-ij]quinoline hydrochloride]	13
CC1Cc2cccc3c4c(n(c23)C1)CCNCC4 (single isomer, unassigned; (-)) [Example 11, (−)-5-methyl-5,6,9,10,11,12-hexahydro-4H,8H-azepino[4′,5′:4,5]pyrrolo[3,2,1-ij]quinoline hydrochloride]	96
Clc1ccc2c3c1c1c(n3CCO2)CCNCC1 [Example 22, 6-chloro-1,2,8,9,10,11-hexahydro-7H-azepino[4,5-b][1,4]oxazino[2,3,4-hi]indole hydrochloride]	2.3
CC1CCc2cccc3c4c(n1c23)CCNCC4 (single isomer, unassigned; (-)) [Example 9, (−)-6-methyl-5,6,9,10,11,12-hexahydro-4H,8H-azepino[4′,5′:4,5]pyrrolo[3,2,1-ij]quinoline hydrochloride]	26
CC1Cc2cccc3c4c(n(c23)C1)CCNCC4 (stereo not drawn) [Example 6, 5-methyl-5,6,9,10,11,12-hexahydro-4H,8H-azepino[4′,5′:4,5]pyrrolo[3,2,1-ij]quinoline hydrochloride]	44
Cc1ccc2c3c1c1c(n3CCO2)CCNCC1 [Example 20, 6-methyl-1,2,8,9,10,11-hexahydro-7H-azepino[4,5-b][1,4]oxazino[2,3,4-hi]indole hydrochloride]	3.8
Cc1cc2c3c(c1)c1c(n3CCC2)CCNCC1 [Example 2, 2-methyl-5,6,9,10,11,12-hexahydro-4H,8H-azepino[4′,5′:4,5]pyrrolo[3,2,1-ij]quinoline hydrochloride]	80
